Test results from paper PMC11954145, “Antimicrobial and ADME properties of methoxylated, methylated and nitrated 2-hydroxynaphthalene-1 carboxanilides” (ADMET & DMPK, 2025).
≈ marks a conversion by molar mass, not a printed value. Where “and” joins values, the source holds several entries; their conditions need not be identical. Equal values may be shown once. Read-outs that look alike come from different tables or passages of the source.

Tests used:
[1] = Cytotoxicity assay (LDH); conditions: human
Experimental: Cytotoxicity of the compounds was determined using an LDH assay kit (Roche Diagnostics, Mannheim, Germany) as described previously. Human monocytic leukemia THP-1 cells (European Collection of Cell Cultures, Salisbury, UK) were exposed for 24 h at 37 °C to various compound concentrations ranging from 0.37 to 30 μM in RPMI 1640 medium. For LDH assays, cells were seeded into 96-well plates (5×10^4 cells/well in 100 μL culture medium) in triplicate in serum-free RPMI 1640 medium and measurements were taken 24 h after the treatment with the compounds. The maximum concentration of DMSO (Sigma) in the assays never exceeded 0.1 %. […] The median lethal dose values, LC50, were deduced through the production of a dose-response curve. All data from three independent experiments were evaluated using GraphPad Prism 5.00 software (GraphPadSoftware, San Diego, CA, USA).

[2] = Lipophilicity determination by RP-HPLC (log k, log D); assay type: physicochemical; conditions: for log D6.5: RP-HPLC C18, MeOH 72 % / acetate-buffered saline pH 6.5; for log D7.4: RP-HPLC C18, MeOH 72 % / acetate-buffered saline pH 7.4; for log k (logarithm of the capacity factor): RP-HPLC C18, MeOH 72 % / water 28 %
Excerpt: An HPLC system Agilent 1200 equipped with a DAD detector (Agilent, Santa Clara, CA, USA) was used. A chromatographic column Symmetry® C18 5 μm, 4.6×250 mm, part No. WAT054275 (Waters Corp., Milford, MA, USA) was used. The HPLC separation process was monitored and evaluated with EZChrom Elite software ver. 3.3.2 (Agilent). Isocratic elution by a mixture of MeOH p.a. (72 %) and H2O-HPLC Mili-Q grade (28 %) as a mobile phase was used for the determination of capacity factor k. Isocratic elution by a mixture of MeOH p.a. (72 %) and acetate-buffered saline (pH 7.4 and pH 6.5) (28 %) as a mobile phase was used for the determination of distribution coefficients expressed as D7.4 and D6.5. The total flow of the column was 1.0 mL min^-1, the injection volume was 20 μL, the column temperature was 40 °C, and the sample temperature was 10 °C. The detection wavelength of 210 nm was chosen. A KI methanolic solution was used to determine the dead times (tD). Retention times (tR) were measured in minutes. The capacity factors k were calculated according to the formula k = (tR–tD)/tD, where tR is the retention time of the solute, and tD is the dead time obtained using an unretained analyte. The distribution coefficients DpH were calculated according to the formula DpH = (tR–tD)/tD. Each experiment was repeated three times.
The capacity factor and distribution coefficients were measured by RP-HPLC on a C18 column with methanol as an organic modifier of the mobile phase. In addition to the experimental lipophilicities, predicted log P values were also calculated using ACD/Percepta, see Table 1. […] The values of σ(Ar) are found in a wide range from 0.01 to 1.36, so the compounds contain substituents with both electron-donating and slightly electron-withdrawing properties.

[3] = test system: S. aureus ATCC 29213; test: Antibacterial screening, broth microdilution MIC; assay type: cell-based; conditions: Staphylococcus aureus, ATCC29213; ATCC 29213, 24 h at 37 °C; read-out: MIC S. aureus
[4] = test system: MRSA 63718; test: Antibacterial screening, broth microdilution MIC; assay type: cell-based, methicillin-resistant S. aureus; conditions: Staphylococcus aureus, read-out: MIC MRSA 63718
[5] = test system: MRSA SA 630; test: Antibacterial screening, broth microdilution MIC; assay type: cell-based, methicillin-resistant S. aureus; conditions: Staphylococcus aureus, clinical isolate, 24 h at 37 °C, read-out: MIC MRSA SA 630
[6] = test system: MRSA SA 3202; test: Antibacterial screening, broth microdilution MIC; assay type: cell-based, methicillin-resistant S. aureus; conditions: Staphylococcus aureus, clinical isolate, 24 h at 37 °C, read-out: MIC MRSA SA 3202
[7] = test system: Enterococcus faecalis ATCC 29212; test: Antibacterial screening, broth microdilution MIC; assay type: cell-based; conditions: ATCC29212, ATCC 29212, 24 h at 37 °C, read-out: MIC E. faecalis
[8] = test system: VRE 342B; test: Antibacterial screening, broth microdilution MIC; assay type: cell-based, vancomycin-resistant E. faecalis; conditions: Enterococcus, vanA isolate, 24 h at 37 °C, read-out: MIC VRE 342B
[9] = test system: VRE 725B; test: Antibacterial screening, broth microdilution MIC; assay type: cell-based, vancomycin-resistant E. faecalis; conditions: Enterococcus, vanA isolate, 24 h at 37 °C, read-out: MIC VRE 725B
[10] = test system: VRE 368; test: Antibacterial screening, broth microdilution MIC; assay type: cell-based, vancomycin-resistant E. faecalis; conditions: Enterococcus, vanA isolate, 24 h at 37 °C, read-out: MIC VRE 368
[11] = test system: E. coli ATCC 25922; test: Antibacterial screening, broth microdilution MIC; assay type: cell-based; conditions: Escherichia coli, ATCC25922; ATCC 25922, 24 h at 37 °C
[12] = test system: Mycobacterium tuberculosis ATCC 25177/H37Ra; test: Antimycobacterial screening, broth dilution MIC (Alamar blue); assay type: cell-based; conditions: 336 h, H37Ra, 14 days at 37 °C, Alamar blue, read-out: MIC M. tuberculosis
Experimental: The evaluation of in vitro antimycobacterial activity of the compounds was performed against Mycobacterium tuberculosis ATCC 25177/H37Ra, Mycobacterium kansasii DSM 44162 and Mycobacterium smegmatis ATCC 700084.
The broth dilution micro-method in Middlebrook 7H9 medium (Difco, Lawrence, KS, USA) supplemented with ADC Enrichment (Difco) was used to determine the minimum inhibitory concentration (MIC) as previously described. […] The final concentrations of the evaluated compounds, ranging from 256 to 0.125 μg mL^-1, were obtained by twofold serial dilution of the stock solution in a microtiter plate with a sterile medium. Bacterial inocula were prepared by transferring colonies from culture to sterile water. The plate was inoculated by tested microorganisms. The final concentration of bacterial cells was 1.5×10^6 for M. tuberculosis and 10^5 cells in a microtiter plate for other mycobacteria. Isoniazid and rifampicin (Sigma) were used as reference antimycobacterial drugs. Drug-free controls, sterility controls, and controls consisting of medium and DMSO alone were included. The plates were incubated for a defined time at an appropriate temperature (3 days at 37 °C for M. smegmatis, and 14 days at 37 °C for M. tuberculosis and M. kansasii). […] The MICs against M. tuberculosis were evaluated by Alamar blue (Oxoid). After incubation, 10 % of Alamar blue was added to each well, and the plate was incubated for 24 h. The MIC values were assessed as the lowest concentration of the tested compounds, which prevented changing blue resazurin to pink resorufin. The experiments were repeated three times. The minimum inhibitory concentrations (MICs) were defined as the lowest concentration of the compound at which no visible bacterial growth was observed. The MIC value is routinely and widely used in bacterial assays and is a standard detection limit according to the CLSI [60].

[13] = test system: Mycobacterium kansasii DSM 44162; test: Antimycobacterial screening, broth dilution MIC; assay type: cell-based; conditions: DSM44162, 336 h, read-out: MIC M. kansasii
[14] = test system: Mycobacterium smegmatis ATCC 700084; test: Antimycobacterial screening, broth dilution MIC; assay type: cell-based; conditions: Mycolicibacterium smegmatis, ATCC700084, 72 h, read-out: MIC M. smegmatis
[15] = clinical isolate, 24 h at 37 °C

SMILES	CC50 at 24 h [1]	log D6.5 [2]	log D7.4 [2]	log k (logarithm of the capacity factor) [2]	MIC [3]	MIC ([4]; 24 h)	MIC [5]	MIC [6]	MIC [7]	MIC [8]	MIC [9]	MIC [10]	MIC [11]	MIC [12]	MIC [13]	MIC [14]	MIC [4, 15]	MIC ([14]; ATCC 700084, 3 days at 37 °C)	MIC ([13]; DSM 44162, 14 days at 37 °C)
CC[C@@]1(O)C(=O)OCc2c1cc1n(c2=O)Cc2cc3ccccc3nc2-1 [CMP, camptothecin, reference compound]	160 ± 70 nM																		
COc1ccc(C)c(NC(=O)c2c(O)ccc3ccccc23)c1 [Compound 17, 2-Hydroxy-N-(5-methoxy-2-methylphenyl)naphthalene-1-carboxamide]		0.1047	0.1113	0.0892	104 µM (≈ 32 µg/mL)	416 µM (≈ 128 µg/mL)	208 µM (≈ 63.9 µg/mL)	208 µM (≈ 63.9 µg/mL)	833 µM (≈ 256 µg/mL)	833 µM (≈ 256 µg/mL)	833 µM (≈ 256 µg/mL)	833 µM (≈ 256 µg/mL)	833 µM (≈ 256 µg/mL)	416 µM (≈ 128 µg/mL)	833 µM (≈ 256 µg/mL)	416 µM (≈ 128 µg/mL)			
COc1ccc(Cl)c(NC(=O)c2c(O)ccc3ccccc23)c1 [Compound 18, N-(2-Chloro-5-methoxyphenyl)-2-hydroxynaphthalene-1-carboxamide]		0.4607	0.4593	0.46 and 0.4635	48.8 µM (≈ 16 µg/mL)		48.8 µM (≈ 16 µg/mL)	97.6 µM (≈ 32 µg/mL)	781 µM (≈ 256 µg/mL)	781 µM (≈ 256 µg/mL)	781 µM (≈ 256 µg/mL)	781 µM (≈ 256 µg/mL)	781 µM (≈ 256 µg/mL)	391 µM (≈ 128 µg/mL)	391 µM (≈ 128 µg/mL)		195 µM (≈ 63.9 µg/mL)	781 µM (≈ 256 µg/mL)	
COc1ccc(Br)cc1NC(=O)c1c(O)ccc2ccccc12 [Compound 19, N-(5-Bromo-2-methoxyphenyl)-2-hydroxynaphthalene-1-carboxamide]		0.5836	0.5835	0.5845	688 µM (≈ 256 µg/mL)		688 µM (≈ 256 µg/mL)	688 µM (≈ 256 µg/mL)	688 µM (≈ 256 µg/mL)	688 µM (≈ 256 µg/mL)	688 µM (≈ 256 µg/mL)	688 µM (≈ 256 µg/mL)	688 µM (≈ 256 µg/mL)	344 µM (≈ 128 µg/mL)			688 µM (≈ 256 µg/mL)	688 µM (≈ 256 µg/mL)	688 µM (≈ 256 µg/mL)
COc1ccc(C(F)(F)F)cc1NC(=O)c1c(O)ccc2ccccc12 [Compound 20, 2-Hydroxy-N-[2-methoxy-5-(trifluoromethyl)phenyl]naphthalene-1-carboxamide]		0.5323	0.5305	0.5335	709 µM (≈ 256 µg/mL)		709 µM (≈ 256 µg/mL)	709 µM (≈ 256 µg/mL)	709 µM (≈ 256 µg/mL)	709 µM (≈ 256 µg/mL)	709 µM (≈ 256 µg/mL)	709 µM (≈ 256 µg/mL)	709 µM (≈ 256 µg/mL)	354 µM (≈ 128 µg/mL)			709 µM (≈ 256 µg/mL)	709 µM (≈ 256 µg/mL)	709 µM (≈ 256 µg/mL)
COc1ccc(NC(=O)c2c(O)ccc3ccccc23)cc1C(F)(F)F [Compound 21, 2-Hydroxy-N-[4-methoxy-3-(trifluoromethyl)phenyl]naphthalene-1-carboxamide]		0.1704	0.1745	0.16 and 0.1635	88.6 µM (≈ 32 µg/mL)		88.6 µM (≈ 32 µg/mL)	88.6 µM (≈ 32 µg/mL)	88.6 µM (≈ 32 µg/mL)	177 µM (≈ 64 µg/mL)	88.6 µM (≈ 32 µg/mL)	88.6 µM (≈ 32 µg/mL)	709 µM (≈ 256 µg/mL)	354 µM (≈ 128 µg/mL)			177 µM (≈ 64 µg/mL)	177 µM (≈ 64 µg/mL)	709 µM (≈ 256 µg/mL)
Cc1ccc(NC(=O)c2c(O)ccc3ccccc23)cc1C(F)(F)F [Compound 23, 2-Hydroxy-N-[4-methyl-3-(trifluoromethyl)phenyl]naphthalene-1-carboxamide]		0.4621	0.4636	0.46 and 0.4605	23.2 µM (≈ 8.01 µg/mL)	371 µM (≈ 128 µg/mL)	92.7 µM (≈ 32 µg/mL)	46.3 µM (≈ 16 µg/mL)	741 µM (≈ 256 µg/mL)	741 µM (≈ 256 µg/mL)	741 µM (≈ 256 µg/mL)	741 µM (≈ 256 µg/mL)	741 µM (≈ 256 µg/mL)	371 µM (≈ 128 µg/mL)				46.3 µM (≈ 16 µg/mL)	741 µM (≈ 256 µg/mL)
